Columns and labels:
[1] = Example 2: titration of amine coated core sand in brine #2 with 1N HCl, amine in solution by GC; assay type: physicochemical; settings: core sand in brine #2, titrated with 1N HCl
Method: Helium was used as the carrier gas.
38 milligrams (mg) of N N-Dimethyl-1-Dodecanamine (hereafter referred to as “the amine”) was added to 10.210 gr of Pentane. This solution was added to 10.1845 gr of specific sand layers (Oa and Ob) obtained from the Schrader Bluff formation of the Milne Point Unit of the Alaskan North slope. The oil content of the sand was first removed using a mixture of methanol and toluene (50/50, volume/volume) as solvent washes. The solvent mixture was subsequently evaporated off the core sand to produce clean, dry, flowable core sand. This sand was mixed with the amine and pentane solution to produce a slurry. This slurry was thoroughly mixed and the pentane was evaporated off leaving the amine on the sand (hereafter referred to as sand/amine mixture). 100 ml of brine #2 (Table 3) was added to the sand/amine mixture to create the sand/amine/brine mixture. […] The fact that the amine was not detected underlined its strong binding to the sand particles. […] The data underlines the remarkable efficiency of an acid at ionizing and removing the amine from the sand.

[2] = Example 4: titration of sand/amine/brine mixture with 10% nitric acid, amine in solution by GC; settings: core sand in brine #2, titrated with 10 wt % nitric acid
Method: (§1) Concentration of amines, in media and water, were analyzed by gas chromatography (GC). An Agilent Model 5890 (Agilent, Wilmington, Del.), GC equipped with a […] and a split/splitless injector, a DB-FFAP column (30 meter length×0.32 millimeter (mm) […]×0.25 micrometer particle size). […] The system was calibrated using a sample of N,N-Dimethyl-1-Dodecaneamine (Aldrich). Helium was used as the carrier gas. A temperature gradient of 50 degrees Celsius (° C.) to 250° C. at 30° C. increase per minute (min) was used.
The procedure outlined in Example 2 was used to produce the sand/amine mixture except that 519 mg of the amine, 10 gr of Pentane. and 60.062 gr of sand from the Oa and Ob layers were used. 29.065 gr of this sand/amine mixture was added to 100 ml of brine #2 (Table 3) to create the sand/amine/brine mixture. […] The concentration of the amine in the water should have been about […] if all the amine was dissolved in brine #2. […] 0.1 ml of 10 weight percent (wt %) nitric acid in water was added to this solution, and the pH and the amine concentration were measured again.

[3] = Example 5: titration of sand/amine/brine mixture with 10% acetic acid, amine in solution by GC; settings: core sand in brine #2, titrated with 10 wt % acetic acid
Method: as §1
The same procedure outlined in Example 4 was repeated here to produce the sand/amine mixture. 30.85 grams (gr) of the sand/amine mixture was added to 100 ml of brine #2 (Table 3) to create the sand/amine/brine mixture.

CCCCCCCCCCCCN(C)C [N-N-dimethyl-1-dodeanamine, N N-Dimethyl-1-Dodecanamine]
pH below which complete ionization and solubilization of the amine in the water was observed [1]: ~6.0 pH
pH below which complete ionization and solubilization in the water of the amine was observed [2]: ~6.7 pH
pH below which complete ionization and solubilization in the water of the amine was observed [3]: ~6.7 pH

From US8408292B2, “Method for pre-treatment of subterranean sites adjacent to water injection wells” (E.I. du Pont de Nemours and Company, priority 2010, dated 2013)
